Assay results from patent publication US20170275650A1, “ENDOSOMAL ESCAPE DOMAINS FOR […] OF MACR[…] CELLS” (priority 2014, published 2017).
Entries after “also recorded” stand apart in the source; their conditions may differ. Where a SMILES comes first, the peptide text is derived from it. Bridges are numbered along the chain shown (N, C = ends). Roman numbers before positions name the chains, in order.

How the values were obtained:
[1] = system: GFPβ1-10 expressing H1299c#G3 cells; format: cell-based, human; conditions: FACS FSC/SSC and viable cell number relative to untreated control cells
Excerpt: Cell morphology and cell viability.

[2] = system: GFPβ1-10 expressing MDA-MB-231c#G3 cells; assay: split GFP fluorescence complementation transduction assay (FACS); format: cell-based, human; conditions: increasing amounts of peptide (FIG. 6)
Procedure: (§1) Cell culture, transfections and immunoblots. H1299, MCF7, MDA-MB-231 and HaCat cells were maintained in DMEM supplemented with 10% FBS, 100 U/ml penicillin, and 100 U/ml streptomycin. H1299c#G3, H1299c#G4, MCF7c#G7, MDA-MB-231c#G3 and HaCaTc#G7 cells were generated by transfecting cells with pCMV-mGFPβ1-10 and subsequently grown under hygromycin selection. Hygromycin resistant cells were then treated with GFPβ11-TAT and directly after, individual, transiently fluorescent clonal cells were isolated by FACS sorting. Clones were expanded and tested for stable GFPβ1-10 expression. H1299c#G3, H1299c#G4, MCF7c#G7, MDA-MB-231c#G3 and HaCaTc#G7 cells were maintained in DMEM supplemented with 10% FBS, 100 U/ml penicillin, 100 U/ml streptomycin and 80 or 100 ug/ml hygromycin. Transient transfections of siRNA or plasmid DNA were performed using Lipofectamine 2000 according to standard protocol. Immunblots were performed using 10% SDS-PAGE, semi-dry transfer (BioRad) and developed on ChemiDoc Imager (BioRad).
(§2) Peptide transduction. All transduction experiments were performed in 48-well plates. An optimized protocol was established. First, 15,000 or 20,000 cells were plated in each well. Next day, the indicated peptides were pipetted into eppendorf tubes. Transduction buffer (60% OptiMEM and 40% PBS) was added to peptide (100 μl total volume), directly mixed by pipetting up and down five times and then immediately transferred to cells. All pipetting steps were done in a laminar flow cell culture hood and standardized to 15 min for each plate before transferring the plate of cells to a 37° C. […] CO2 incubator (alternatively cells were incubated 2 h with peptides and another 4 h with DMEM, 10% FBS (FIG. 8b, c, d). For the transduction time-course, cells were incubated with peptides in transduction buffer until indicated time-points. All cells were trypzinized and collected in 250 μl OptiMEM without phenol red and analyzed by FACS (GFP, FSC/SSC). 4000 viable cells were analyzed per sample. Data is presented as fold change in fluorescence compared to non-treated cells.

[3] = system: GFPβ1-10 expressing MCF7c#G7 cells; assay: as above; format: cell-based, human; conditions: increasing amounts of peptide (FIG. 6)
Procedure: as §1, §2

[4] = system: GFPβ1-10 expressing HaCatc#G7 cells; assay: as above; format: cell-based, human; conditions: increasing amounts of peptide (FIG. 6)
Procedure: as §1, §2

[5] = system: GFPβ1-10 expressing HaCatc#G7 cells; conditions: increasing amounts of peptide (FIG. 6)
Procedure: (§3) Cell morphology and cell viability. Cell morphology was determined by FACS analysis of FSC and SSC. Gates were set manually for viable cells using untreated control cells as reference and the fraction of viable cells compared to non-viable cells was determined for each sample. Data are presented as the relative difference compared to non-treated control cells. Viable cells per sample were determined by measuring number of viable cells that were analyzed per second by FACS. Gates for viable cells were set manually using untreated control cells as reference. Data are presented as the relative difference compared to untreated control cells.

[6] = system: GFPβ1-10 expressing H1299c#G3 cells; assay: split GFP fluorescence complementation transduction assay (FACS); format: cell-based, human; conditions: dose-dependent comparison, up to 60 μM, FACS (FIG. 4, 5)
Procedure: Peptide transduction. All transduction experiments were performed in 48-well plates. An optimized protocol was established. First, 15,000 or 20,000 cells were plated in each well. Next day, the indicated peptides were pipetted into eppendorf tubes. Transduction buffer (60% OptiMEM and 40% PBS) was added to peptide (100 μl total volume), directly mixed by pipetting up and down five times and then immediately transferred to cells. All pipetting steps were done in a laminar flow cell culture hood and standardized to 15 min for each plate before transferring the plate of cells to a 37° C. CO2 incubator for 1.5 h before addition of 500 μl DMEM supplemented with 10% FBS and another incubation round for 3.5 h in the 37° C. CO2 incubator (alternatively cells were incubated 2 h with peptides and another 4 h with DMEM, 10% FBS (FIG. 8b, c, d). For the transduction time-course, cells were incubated with peptides in transduction buffer until indicated time-points. All cells were trypzinized and collected in 250 μl OptiMEM without phenol red and analyzed by FACS (GFP, FSC/SSC). 4000 viable cells were analyzed per sample. Data is presented as fold change in fluorescence compared to non-treated cells.
To address these problems, the disclosure provides a self-assembling, bimolecular or split GFP fluorescence complementation system that was originally designed to tag and monitor proteins. GFP is composed of 11 β-strands that form a barrel structure allowing for peptidyl backbone cyclization and formation of a fluorescent chromophore. […] Importantly, co-incubation of GFPβ1-10 with the GFPβ11 peptide in trans efficiently reconstitutes GFP fluorescent chromophore bond and GFP fluorescence (FIG. 1a). To study PTD-mediated delivery, cell lines were generated that constitutively expressed the non-fluorescent GFPβ1-10 fragment and treated them in trans with a GFPβ11-PTD/CPP peptide to restore GFP fluorescence.
Cell clones of various human cell lines constitutively expressing the non-fluorescent large GFPβ1-10 fragment, including H1299 non-small cell lung carcinoma, HaCaT immortalized keratinocytes, and MDA-MB-231 and MCF7 breast carcinomas, and assayed for reconstituted intracellular GFP fluorescence after treatment with transducible GFPβ11-PTD/CPP peptides by FACS (FIG. 1a). Starting with human H1299 cells, known to be a good model for PTD/CPP-mediated uptake, two GFPβ1-10 expressing clones were generated (c#G3 and c#G4) (FIG. 8a). GFPβ1-10 expressing H1299c#G3 cells were treated for 1.5 h with increasing amounts of transducible GFPβ11-TAT peptide (0-60 μM), followed by an additional 3.5 h in DMEM supplemented with 10% FBS. At 5 h post-addition of GFPβ11-TAT peptide, cells were trypsinized and live cell assayed by FACS.

[7] = system: GFPβ1-10 expressing MDA-MB-231c#G3 cells; conditions: increasing amounts of peptide (FIG. 6)
Procedure: as §3

[8] = system: GFPβ1-10 expressing MCF7c#G7 cells; conditions: increasing amounts of peptide (FIG. 6)
Procedure: as §3

In the case of `CC[C@H](C)[C@H](NC(=O)CNC(=O)[C@H](C)NC(=O)[C@H](C)NC(=O)[C@H](CC(N)=O)NC(=O)[C@@H](NC(=O)[C@H](Cc1ccc(O)cc1)NC(=O)[C@H](CCC(=O)O)NC(=O)[C@H](Cc1c[nH]cn1)NC(=O)[C@H](CC(C)C)NC(=O)[C@@H](NC(=O)[C@H](CCSC)NC(=O)[C@H](Cc1c[nH]cn1)NC(=O)[C@H](CC(=O)O)NC(=O)[C@@H](N)CCCNC(=N)N)C(C)C)C(C)C)C(=O)N[C@H](C(=O)NCC(=O)NCC(=O)N[C@@H](CO)C(=O)NCC(=O)NCC(=O)N[C@@H](CSSC[C@H](N)C(=O)NCC(=O)NCC(=O)N[C@@H](CCCNC(=N)N)C(=O)N[C@@H](CCCCN)C(=O)N[C@@H](CCCCN)C(=O)N[C@@H](CCCNC(=N)N)C(=O)N[C@@H](CCCNC(=N)N)C(=O)N[C@@H](CCC(N)=O)C(=O)N[C@@H](CCCNC(=N)N)C(=O)N[C@@H](CCCNC(=N)N)C(=O)N[C@@H](CCCNC(=N)N)C(=O)NCC(=O)N[C@@H](Cc1c[nH]c2ccccc12)C(=O)N[C@@H](Cc1c[nH]c2ccccc12)C(=O)NCC(N)=O)C(N)=O)[C@@H](C)O` [GFPβ11-(S-S)-TAT-WW] (I: H-RDHMVLHEYVNAAGITGGSGGC-NH2 / II: H-CGGRKKRRQRRRGWWG-NH2; disulfide I:22-II:1), the “cytotoxicity / morphological changes” value [1] is reported as “severely increased cytotoxicity”.

For `CC[C@H](C)[C@H](NC(=O)CNC(=O)[C@H](C)NC(=O)[C@H](C)NC(=O)[C@H](CC(N)=O)NC(=O)[C@@H](NC(=O)[C@H](Cc1ccc(O)cc1)NC(=O)[C@H](CCC(=O)O)NC(=O)[C@H](Cc1c[nH]cn1)NC(=O)[C@H](CC(C)C)NC(=O)[C@@H](NC(=O)[C@H](CCSC)NC(=O)[C@H](Cc1c[nH]cn1)NC(=O)[C@H](CC(=O)O)NC(=O)[C@@H](N)CCCNC(=N)N)C(C)C)C(C)C)C(=O)N[C@H](C(=O)NCC(=O)NCC(=O)N[C@@H](CO)C(=O)NCC(=O)NCC(=O)N[C@@H](CSSC[C@H](N)C(=O)NCC(=O)NCC(=O)N[C@@H](CCCNC(=N)N)C(=O)N[C@@H](CCCCN)C(=O)N[C@@H](CCCCN)C(=O)N[C@@H](CCCNC(=N)N)C(=O)N[C@@H](CCCNC(=N)N)C(=O)N[C@@H](CCC(N)=O)C(=O)N[C@@H](CCCNC(=N)N)C(=O)N[C@@H](CCCNC(=N)N)C(=O)N[C@@H](CCCNC(=N)N)C(N)=O)C(N)=O)[C@@H](C)O` [GFPβ11-(S-S)-TAT], the “cytotoxicity / morphological changes” value [1] was “absence of cytotoxicity”.

For `CC[C@H](C)[C@H](NC(=O)CNC(=O)[C@H](C)NC(=O)[C@H](C)NC(=O)[C@H](CC(N)=O)NC(=O)[C@@H](NC(=O)[C@H](Cc1ccc(O)cc1)NC(=O)[C@H](CCC(=O)O)NC(=O)[C@H](Cc1c[nH]cn1)NC(=O)[C@H](CC(C)C)NC(=O)[C@@H](NC(=O)[C@H](CCSC)NC(=O)[C@H](Cc1c[nH]cn1)NC(=O)[C@H](CC(=O)O)NC(=O)[C@@H](N)CCCNC(=N)N)C(C)C)C(C)C)C(=O)N[C@H](C(=O)NCC(=O)NCC(=O)N[C@@H](CO)C(=O)NCC(=O)NCC(=O)N[C@@H](CSSC[C@H](N)C(=O)NCC(=O)NCC(=O)N[C@@H](C)C(=O)NCC(=O)N[C@@H](Cc1ccc(O)cc1)C(=O)N[C@@H](CC(C)C)C(=O)N[C@@H](CC(C)C)C(=O)NCC(=O)N[C@@H](CCCCN)C(=O)N[C@H](C(=O)N[C@@H](CC(N)=O)C(=O)N[C@@H](CC(C)C)C(=O)N[C@@H](CCCCN)C(=O)N[C@@H](C)C(=O)N[C@@H](CC(C)C)C(=O)N[C@@H](C)C(=O)N[C@@H](C)C(=O)N[C@@H](CC(C)C)C(=O)N[C@@H](C)C(=O)N[C@@H](CCCCN)C(=O)N[C@@H](CCCCN)C(=O)N[C@H](C(=O)N[C@@H](CC(C)C)C(N)=O)[C@@H](C)CC)[C@@H](C)CC)C(N)=O)[C@@H](C)O` [GFPβ11-(S-S)-TP10], the “cytotoxicity / morphological changes” value [1] was “very high level of cytotoxicity; also recorded: high toxicity”.

`CC[C@H](C)[C@H](NC(=O)CNC(=O)[C@H](C)NC(=O)[C@H](C)NC(=O)[C@H](CC(N)=O)NC(=O)[C@@H](NC(=O)[C@H](Cc1ccc(O)cc1)NC(=O)[C@H](CCC(=O)O)NC(=O)[C@H](Cc1c[nH]cn1)NC(=O)[C@H](CC(C)C)NC(=O)[C@@H](NC(=O)[C@H](CCSC)NC(=O)[C@H](Cc1c[nH]cn1)NC(=O)[C@H](CC(=O)O)NC(=O)[C@@H](N)CCCNC(=N)N)C(C)C)C(C)C)C(=O)N[C@H](C(=O)NCC(=O)NCC(=O)N[C@@H](CO)C(=O)NCC(=O)NCC(=O)N[C@@H](CCCNC(=N)N)C(=O)N[C@@H](CCCCN)C(=O)N[C@@H](CCCCN)C(=O)N[C@@H](CCCNC(=N)N)C(=O)N[C@@H](CCCNC(=N)N)C(=O)N[C@@H](CCC(N)=O)C(=O)N[C@@H](CCCNC(=N)N)C(=O)N[C@@H](CCCNC(=N)N)C(=O)N[C@@H](CCCNC(=N)N)C(N)=O)[C@@H](C)O` [GFPβ11-TAT] (H-RDHMVLHEYVNAAGITGGSGGRKKRRQRRR-NH2) was tested, and the “cytotoxicity / morphological changes” value [1] was “did not display any cytotoxicity or morphological changes”.

In the case of “RDHMVLHEYVNAAGIT-GGSGGC-(S-S)-CGG-RKKRRQRRR-(PEG)6-GFWFG (disulfide bond, (PEG)6-GFWFG) [GFPβ11-(S-S)-TAT-P6-GFWFG]”, the “cytotoxicity / morphological changes” value [1] is reported as “absence of any detectable cytotoxicity”, the “GFP complementation compared to parental GFPβ11-(S-S)-TAT control peptide” value [2] is reported as “significantly enhanced GFP complementation” and the “GFP complementation compared to parental GFPβ11-(S-S)-TAT control peptide” value [3] is reported as “significantly enhanced GFP complementation”. For the same compound, the “GFP complementation compared to parental GFPβ11-(S-S)-TAT control peptide” value [4] was “significantly enhanced GFP complementation”, the cytotoxicity [5] was “Low to no cytotoxicity” and the “GFP fluorescence / transduction compared to parental GFPβ11-(S-S)-TAT” value [6] was “four-fold increase”. For the same compound, the cytotoxicity [7] was “Low to no cytotoxicity” and the cytotoxicity [8] was “Low to no cytotoxicity”.
